Target: human activated kallikrein enzyme (plasma kallikrein) (Homo sapiens (Human), UniProt P03952)
Assay: Inhibition of human activated plasma kallikrein, fluorogenic peptide substrate assay, 500 pM enzyme format
Assay type: biochemical
Conditions: 500 pM activated kallikrein enzyme, 300 uM Pro-Phe-Arg-7-amido-4-methylcoumarin substrate, 30 min preincubation, 10 min at RT; read-out: Primary Dose Response Assay: Average EC50
Outline: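 Buffer 20 mM Tris pH 7.5, EDTA, NaCl, PEG-400, Triton X-100; 300 uM Pro-Phe-Arg-AMC; enzyme–inhibitor preincubation 30 min RT. Format one: 500 pM kallikrein, 10 min RT reaction; format two: 5 pM kallikrein, 18 h RT reaction. Fluorescence read at 460 nm (380 nm excitation).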

Sequence of human activated kallikrein enzyme (plasma kallikrein) (P03952 391-638): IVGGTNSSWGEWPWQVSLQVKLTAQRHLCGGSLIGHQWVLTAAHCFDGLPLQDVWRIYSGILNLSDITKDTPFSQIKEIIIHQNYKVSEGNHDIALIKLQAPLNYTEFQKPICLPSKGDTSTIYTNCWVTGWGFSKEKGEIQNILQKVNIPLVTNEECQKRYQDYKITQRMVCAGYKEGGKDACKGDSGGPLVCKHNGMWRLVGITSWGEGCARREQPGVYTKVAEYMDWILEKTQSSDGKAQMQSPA
Sequence of human activated kallikrein enzyme (plasma kallikrein) (P03952 20-390 partner): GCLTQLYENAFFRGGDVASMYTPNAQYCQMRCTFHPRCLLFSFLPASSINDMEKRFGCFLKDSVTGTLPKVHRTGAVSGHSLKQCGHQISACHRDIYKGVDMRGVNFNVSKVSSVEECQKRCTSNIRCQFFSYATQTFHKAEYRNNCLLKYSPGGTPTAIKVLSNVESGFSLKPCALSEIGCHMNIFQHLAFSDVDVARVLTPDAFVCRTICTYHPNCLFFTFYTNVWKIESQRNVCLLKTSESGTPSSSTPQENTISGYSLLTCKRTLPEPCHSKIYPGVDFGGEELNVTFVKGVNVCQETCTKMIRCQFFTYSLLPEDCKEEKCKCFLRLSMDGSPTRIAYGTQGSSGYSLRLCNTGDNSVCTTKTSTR

SMILES | EC50 [nM]
CC(NC(=O)c1cnn(Cc2cn3cc(C4CC4)ccc3n2)c1)c1ncn2ccc(Br)cc12 (stereo not shown) [Example I-74, N-(1-(7-bromoimidazo[1,5-a]pyridin-1-yl)ethyl)-1-((6-cyclopropylimidazo[1,2-a]pyridin-2-yl)methyl)-1H-pyrazole-4-carboxamide] | 1 to 10
O=C(NCc1ncn2ccc(Cl)cc12)c1cnn(Cc2cn3cc(C4CC4)cc(CO)c3n2)c1 [Example I-75, N-((7-chloroimidazo[1,5-a]pyridin-1-yl)methyl)-1-((6-cyclopropyl-8-(hydroxymethyl)imidazo[1,2-a]pyridin-2-yl)methyl)-1H-pyrazole-4-carboxamide] | < 1
O=C(NCc1ncn2ccc(Br)cc12)c1cnn(Cc2cn3cc(C4CC4)cnc3n2)c1 [Example I-76, N-((7-bromoimidazo[1,5-a]pyridin-1-yl)methyl)-1-((6-cyclopropylimidazo[1,2-a]pyrimidin-2-yl)methyl)-1H-pyrazole-4-carboxamide] | < 1
CNc1cccc2nc(Cn3cc(C(=O)NCc4ncn5ccc(Cl)cc45)cn3)cn12 [Example I-77, N-((7-chloroimidazo[1,5-a]pyridin-1-yl)methyl)-1-((5-(methylamino)imidazo[1,2-a]pyridin-2-yl)methyl)-1H-pyrazole-4-carboxamide] | 10 to 100
O=C(NCc1ncn2ccc(Cl)cc12)c1cn(Cc2cn3cc(C4CC4)ccc3n2)nc1C1CC1 [Example I-78, N-((7-chloroimidazo[1,5-a]pyridin-1-yl)methyl)-3-cyclopropyl-1-((6-cyclopropylimidazo[1,2-a]pyridin-2-yl)methyl)-1H-pyrazole-4-carboxamide] | < 1
C#Cc1c(C2CC2)ccc2nc(Cn3cc(C(=O)NCc4ncn5ccc(Cl)cc45)cn3)cn12 [Example I-79, N-((7-chloroimidazo[1,5-a]pyridin-1-yl)methyl)-1-((6-cyclopropyl-5-ethynylimidazo[1,2-a]pyridin-2-yl)methyl)-1H-pyrazole-4-carboxamide] | 1 to 10
O=C(NCc1ncn2ccc(Cl)cc12)c1cn(Cc2cn3cc(C4CC4)ccc3n2)nn1 [Example I-80, N-((7-chloroimidazo[1,5-a]pyridin-1-yl)methyl)-1-((6-cyclopropylimidazo[1,2-a]pyridin-2-yl)methyl)-1H-1,2,3-triazole-4-carboxamide] | < 1
COC(=O)Cc1cc(C2CC2)cn2cc(Cn3cc(C(=O)NCc4ncn5ccc(Cl)cc45)cn3)nc12 [Example I-81, methyl 2-(2-((4-(((7-chloroimidazo[1,5-a]pyridin-1-yl)methyl)carbamoyl)-1H-pyrazol-1-yl)methyl)-6-cyclopropylimidazo[1,2-a]pyridin-8-yl)acetate] | < 1
COC(=O)CCc1c(C(=O)NCc2ncn3ccc(Cl)cc23)cnn1Cc1cn2cc(C3CC3)ccc2n1 [Example I-82, methyl 3-(4-(((7-chloroimidazo[1,5-a]pyridin-1-yl)methyl)carbamoyl)-1-((6-cyclopropylimidazo[1,2-a]pyridin-2-yl)methyl)-1H-pyrazol-5-yl)propanoate] | 10 to 100
O=C(NCc1nc(C(F)F)n2ccc(Br)cc12)c1cnn(Cc2cn3cc(C4CC4)ccc3n2)c1 [Example I-83, N-((7-bromo-3-(difluoromethyl)imidazo[1,5-a]pyridin-1-yl)methyl)-1-((6-cyclopropylimidazo[1,2-a]pyridin-2-yl)methyl)-1H-pyrazole-4-carboxamide] | 10 to 100
O=C(NCc1ncn2ccc(Cl)cc12)c1cnn(Cc2cc3ncc(C4CC4)cc3[nH]2)c1 [Example I-84, N-((7-chloroimidazo[1,5-a]pyridin-1-yl)methyl)-1-((6-cyclopropyl-1H-pyrrolo[3,2-b]pyridin-2-yl)methyl)-1H-pyrazole-4-carboxamide] | 10 to 100
O=C(NCc1ncn2ccc(Br)cc12)c1cn(Cc2cn3cc(C4CC4)ccc3n2)nc1C1CC1 [Example I-85, N-((7-bromoimidazo[1,5-a]pyridin-1-yl)methyl)-3-cyclopropyl-1-((6-cyclopropylimidazo[1,2-a]pyridin-2-yl)methyl)-1H-pyrazole-4-carboxamide] | < 1
O=C(O)Cc1cc(C2CC2)cn2cc(Cn3cc(C(=O)NCc4ncn5ccc(Cl)cc45)cn3)nc12 [Example I-86, 2-(2-((4-(((7-chloroimidazo[1,5-a]pyridin-1-yl)methyl)carbamoyl)-1H-pyrazol-1-yl)methyl)-6-cyclopropylimidazo[1,2-a]pyridin-8-yl)acetic acid] | < 1
O=C(NCc1ncn2ccc(Cl)cc12)c1cnn(Cc2cn3cc(C4CC4)cc(CCO)c3n2)c1 [Example I-87, N-((7-chloroimidazo[1,5-a]pyridin-1-yl)methyl)-1-((6-cyclopropyl-8-(hydroxyethyl)imidazo[1,2-a]pyridin-2-yl)methyl)-1H-pyrazole-4-carboxamide] | < 1
Nc1c(C2CC2)ccc2nc(Cn3cc(C(=O)NCc4ncn5ccc(Cl)cc45)cn3)cn12 [Example I-88, 1-((5-amino-6-cyclopropylimidazo[1,2-a]pyridin-2-yl)methyl)-N-((7-chloroimidazo[1,5-a]pyridin-1-yl)methyl)-1H-pyrazole-4-carboxamide] | 1 to 10
Nc1ccc(C2CC2)c2nc(Cn3cc(C(=O)NCc4ncn5ccc(Cl)cc45)cn3)cn12 [Example I-89, 1-((5-amino-8-cyclopropylimidazo[1,2-a]pyridin-2-yl)methyl)-N-((7-chloroimidazo[1,5-a]pyridin-1-yl)methyl)-1H-pyrazole-4-carboxamide] | 100 to 2000
[2H]C([2H])(NC(=O)c1cnn(Cc2cn3cc(C4CC4)ccc3n2)c1)c1ncn2ccc(Cl)cc12 [Example I-90, N-((7-chloroimidazo[1,5-a]pyridin-1-yl)methyl-d2)-1-((6-cyclopropylimidazo[1,2-a]pyridin-2-yl)methyl)-1H-pyrazole-4-carboxamide] | < 1
COC(=O)c1ccc2nc(Cn3cc(C(=O)NCc4ncn5ccc(Cl)cc45)cn3)cn2c1 [Example I-91, methyl 2-((4-(((7-chloroimidazo[1,5-a]pyridin-1-yl)methyl)carbamoyl)-1H-pyrazol-1-yl)methyl)imidazo[1,2-a]pyridine-6-carboxylate] | 10 to 100
N#Cc1cc(C2CC2)cn2cc(Cn3cc(C(=O)NCc4ncn5ccc(Cl)cc45)cn3)nc12 [Example I-92, N-((7-chloroimidazo[1,5-a]pyridin-1-yl)methyl)-1-((8-cyano-6-cyclopropylimidazo[1,2-a]pyridin-2-yl)methyl)-1H-pyrazole-4-carboxamide] | < 1
CCOC(=O)CCc1nn(Cc2cn3cc(C4CC4)ccc3n2)cc1C(=O)NCc1ncn2ccc(Cl)cc12 [Example I-93, ethyl 3-(4-(((7-chloroimidazo[1,5-a]pyridin-1-yl)methyl)carbamoyl)-1-((6-cyclopropylimidazo[1,2-a]pyridin-2-yl)methyl)-1H-pyrazol-3-yl)propanoate] | < 1
O=C(NCCc1ncn2ccc(Cl)cc12)c1cnn(Cc2cn3cc(C4CC4)ccc3n2)c1 [Example I-94, N-(2-(7-chloroimidazo[1,5-a]pyridin-1-yl)ethyl)-1-((6-cyclopropylimidazo[1,2-a]pyridin-2-yl)methyl)-1H-pyrazole-4-carboxamide] | 10 to 100
O=C(NCc1ncn2ccc(Br)cc12)c1cn(Cc2cn3cc(C4CC4)ccc3n2)nc1C(F)F [Example I-95, N-((7-bromoimidazo[1,5-a]pyridin-1-yl)methyl)-1-((6-cyclopropylimidazo[1,2-a]pyridin-2-yl)methyl)-3-(difluoromethyl)-1H-pyrazole-4-carboxamide] | 1 to 10
O=C(O)c1ccc2nc(Cn3cc(C(=O)NCc4ncn5ccc(Cl)cc45)cn3)cn2c1 [Example I-96, 2-((4-(((7-chloroimidazo[1,5-a]pyridin-1-yl)methyl)carbamoyl)-1H-pyrazol-1-yl)methyl)imidazo[1,2-a]pyridine-6-carboxylic acid] | > 2000
C#Cc1ccn2cnc(CNC(=O)c3cnn(Cc4cn5nc(C6CC6)ccc5n4)c3)c2c1 [Example I-98, 1-((6-cyclopropylimidazo[1,2-b]pyridazin-2-yl)methyl)-N-((7-ethynylimidazo[1,5-a]pyridin-1-yl)methyl)-1H-pyrazole-4-carboxamide] | < 1
O=C(NCc1ncn2ccc(Cl)cc12)c1cn(Cc2cn3cc(C4CC4)ccc3n2)nc1C(F)F [Example I-99, N-((7-chloroimidazo[1,5-a]pyridin-1-yl)methyl)-1-((6-cyclopropylimidazo[1,2-a]pyridin-2-yl)methyl)-3-(difluoromethyl)-1H-pyrazole-4-carboxamide] | < 1
CCOC(=O)C=Cc1cc(C2CC2)cn2cc(Cn3cc(C(=O)NCc4ncn5ccc(Cl)cc45)cn3)nc12 [Example I-100a, ethyl 3-(2-((4-(((7-chloroimidazo[1,5-a]pyridin-1-yl)methyl)carbamoyl)-1H-pyrazol-1-yl)methyl)-6-cyclopropylimidazo[1,2-a]pyridin-8-yl)acrylate] | < 1
CCOC(=O)CCc1cc(C2CC2)cn2cc(Cn3cc(C(=O)NCc4ncn5ccc(Cl)cc45)cn3)nc12 [Example I-100b, ethyl 3-(2-((4-(((7-chloroimidazo[1,5-a]pyridin-1-yl)methyl)carbamoyl)-1H-pyrazol-1-yl)methyl)-6-cyclopropylimidazo[1,2-a]pyridin-8-yl)propanoate] | < 1
O=C(O)CCc1cc(C2CC2)cn2cc(Cn3cc(C(=O)NCc4ncn5ccc(Cl)cc45)cn3)nc12 [Example I-100c, 3-(2-((4-(((7-chloroimidazo[1,5-a]pyridin-1-yl)methyl)carbamoyl)-1H-pyrazol-1-yl)methyl)-6-cyclopropylimidazo[1,2-a]pyridin-8-yl)propanoic acid] | < 1
